Bridge positions count the residues as written; N and C are the ends. Peptide text beside a SMILES is read from it. * marks the point of attachment. Biotin = O=C1N[C@H]2[C@H](CS[C@H]2CCCCC(=O)*)N1
What was measured:
[1] = target: T1, mouse RNF43 (Mus musculus, UniProt Q5NCP0); assay: SPR binding of DCPs to mouse RNF43; details: independently performed at least three times
T1 sequence (Q5NCP0 24-197 limits assumed): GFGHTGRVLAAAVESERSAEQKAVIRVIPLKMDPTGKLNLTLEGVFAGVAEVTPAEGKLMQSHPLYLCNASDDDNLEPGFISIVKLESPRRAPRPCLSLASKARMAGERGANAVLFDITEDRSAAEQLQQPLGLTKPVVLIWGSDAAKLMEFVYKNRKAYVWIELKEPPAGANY
Procedure: (§1) SPR measurement was carried out using a Biacore S200 (Cytiva) instrument, with PBS-T (PBS with 0.05% Tween 20, pH 7.4) as the buffer. Biotinylated protein was captured on three sensor channels of Series S SA Sensors (Cytiva). The sensors were then blocked with 0.1 mg/mL biotin. DCPs were injected onto the sensor in a 3× concentration series. The data were double-referenced by subtracting the signal from a sensor channel coated with biotin only and the signal from a buffer injection. For data analysis, binding data were fitted using the manufacturer’s software. ,

[2] = target: T2, deglycosylated RNF43 (Homo sapiens, UniProt Q68DV7); assay: SPR binding to deglycosylated RNF43; details: biotinylated RNF43 treated with Deglycosylation Mix II, fitted data of representative sensorgram
T2 construct: ECD of the human RNF43 protein was incubated with EZ-link-NHS-PEG4-biotin; biotin (chemical label, NHS-PEG4-biotin)
T2 sequence (Q68DV7 24-197): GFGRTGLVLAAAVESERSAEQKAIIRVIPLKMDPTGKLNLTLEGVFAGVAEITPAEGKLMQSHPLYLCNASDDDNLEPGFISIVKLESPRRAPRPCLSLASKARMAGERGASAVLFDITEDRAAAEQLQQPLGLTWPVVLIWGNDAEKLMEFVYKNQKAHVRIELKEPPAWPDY
Procedure: as §1
Protein deglycosylation was performed on a small scale using Deglycosylation Mix II (P6044, NEB), according to the manufacturer’s instructions. Briefly, the biotinylated RNF43 was incubated with Deglycosylation Mix II for 1 h at RT. Then the reaction mixture was transferred to 37 °C and further incubated overnight. Following incubation, the reaction mixture was analyzed by mobility shift on SDS-PAGE gels. After dialysis, the protein was then used for further applications.

[3] = target: T3, human RNF43 (Homo sapiens, UniProt Q68DV7); assay: SPR binding of DCPs to immobilized human RNF43 ECD; details: for improvement in affinity for RNF43 over the previous generation: SPR KD, each round of affinity maturation versus its parent DCP
T3 construct: ECD of the human RNF43 protein was incubated with EZ-link-NHS-PEG4-biotin; biotin (chemical label, NHS-PEG4-biotin on amines, 1-2 per protein)
T3 sequence (Q68DV7 24-197 limits assumed): T2 sequence (Q68DV7 24-197)
Procedure: ECD of the human RNF43 protein was incubated with EZ-link-NHS-PEG4-biotin (Thermo Fisher, 1:1, 50 μM) for 1 h at room temperature (RT). The reaction was quenched by addition of 10 mM Glycine, followed by dialysis into phosphate buffered saline (PBS) overnight at 4 °C. Finally, the biotinylated protein was analyzed using LC-MS to ensure that each protein is labeled with 1–2 biotin molecules. ,
as §1

[4] = test system: ZNRF3; assay: SPR binding to ZNRF3 (specificity); details: bio-GUR-1.6.12.2 on streptavidin sensor
Procedure: as §1

## CC[C@H](C)[C@H](NC(=O)[C@@H]1CSSC[C@H](NC(=O)[C@@H](NC(=O)[C@H](Cc2c[nH]cn2)NC(=O)[C@H](CO)NC(=O)[C@H](Cc2ccc(O)cc2)NC(=O)[C@H](CC(=O)O)NC(=O)[C@H](Cc2c[nH]cn2)NC(=O)[C@@H]2CSSC[C@H](NC(=O)[C@H](CCC(N)=O)NC(=O)[C@@H](N)CCC(=O)O)C(=O)N[C@@H]([C@@H](C)O)C(=O)N[C@@H](CO)C(=O)N[C@@H]([C@@H](C)O)C(=O)N[C@@H](CCC(N)=O)C(=O)N[C@@H](CC(=O)O)C(=O)N[C@@H](CC(C)C)C(=O)N2)C(C)C)C(=O)N[C@H]2CSSC[C@H](NC(=O)[C@H](CC(=O)O)NC(=O)[C@H](CC(C)C)NC(=O)[C@@H]3CCCN3C(=O)[C@H](Cc3c[nH]c4ccccc34)NC2=O)C(=O)N[C@@H](CCCNC(=N)N)C(=O)N[C@@H](Cc2c[nH]c3ccccc23)C(=O)N[C@@H](C)C(=O)N[C@@H](C(C)C)C(=O)N[C@@H](CCCCN)C(=O)N[C@@H](Cc2ccc(O)cc2)C(=O)N[C@@H](CCC(N)=O)C(=O)N[C@@H](Cc2c[nH]c3ccccc23)C(=O)N[C@@H](Cc2ccccc2)C(=O)N[C@@H](Cc2c[nH]c3ccccc23)C(=O)N[C@@H](CC(=O)O)C(=O)N1)C(=O)NCC(=O)O [GUR-1.6.12.2] (H-EQCTSTQDLCHDYSHVCCWPLDCRWAVKYQWFWDCIG-OH; disulfide 3-10, 17-35, 18-23)
[1]
  Kd: 2.1 ± 0.2 nM
[2]
  KD against deglycosylated RNF43: remained unchanged
[3]; SPR, Biacore S200, biotinylated human RNF43 captured on SA sensor, DCP injected, PBS-T pH 7.4, independently performed at least three times, NB = no binding
  KD (h, nM): single-digit nanomolar

## CC[C@H](C)[C@H](NC(=O)[C@@H]1CSSC[C@@H]2NC(=O)[C@H](CC(=O)O)NC(=O)[C@H](CC(C)C)NC(=O)[C@H](Cc3ccc(O)cc3)NC(=O)[C@H](Cc3ccc(O)cc3)NC(=O)[C@@H]3CCCN3C(=O)[C@H]([C@@H](C)CC)NC(=O)[C@@H]3CSSC[C@H](NC(=O)[C@H](CC(=O)O)NC(=O)[C@H](CC(C)C)NC(=O)[C@@H]4CCCN4C(=O)[C@H](Cc4c[nH]c5ccccc45)NC(=O)[C@H](CSSC[C@H](NC(=O)[C@@H](N)CCC(N)=O)C(=O)N[C@@H](C(C)C)C(=O)N[C@@H](CCCCN)C(=O)N[C@@H](CCCCN)C(=O)N[C@@H](CC(=O)O)C(=O)N[C@@H](CCC(=O)O)C(=O)N[C@@H](CC(C)C)C(=O)N3)NC2=O)C(=O)N[C@@H](CCCNC(=N)N)C(=O)N[C@@H](Cc2c[nH]c3ccccc23)C(=O)N[C@@H](C)C(=O)N[C@@H](C(C)C)C(=O)N[C@@H](CCCCN)C(=O)N[C@@H](Cc2ccc(O)cc2)C(=O)N[C@@H](CCC(N)=O)C(=O)N[C@@H](Cc2c[nH]c3ccccc23)C(=O)N[C@@H](Cc2ccccc2)C(=O)N[C@@H](Cc2c[nH]c3ccccc23)C(=O)N[C@@H](CC(=O)O)C(=O)N1)C(=O)NCC(=O)O [GUR-1.6.12] (H-QCVKKDELCIPYYLDCCWPLDCRWAVKYQWFWDCIG-OH; disulfide 2-17, 9-22, 16-34; N-terminus assumed)
[3]
  improvement in affinity for RNF43 over the previous generation: slightly improved

## CC[C@H](C)[C@H](NC(=O)[C@@H]1CSSC[C@@H]2NC(=O)[C@H](CC(=O)O)NC(=O)[C@H](CC(C)C)NC(=O)[C@H](Cc3ccc(O)cc3)NC(=O)[C@H](Cc3ccc(O)cc3)NC(=O)[C@@H]3CCCN3C(=O)[C@H]([C@@H](C)CC)NC(=O)[C@@H]3CSSC[C@H](NC(=O)[C@H](CCC(=O)O)NC(=O)[C@H](CC(C)C)NC(=O)[C@@H]4CCCN4C(=O)[C@H](CCC(=O)O)NC(=O)[C@H](CSSC[C@H](NC(=O)[C@@H](N)CCC(N)=O)C(=O)N[C@@H](C(C)C)C(=O)N[C@@H](CCCCN)C(=O)N[C@@H](CCCCN)C(=O)N[C@@H](CC(=O)O)C(=O)N[C@@H](CCC(=O)O)C(=O)N[C@@H](CC(C)C)C(=O)N3)NC2=O)C(=O)N[C@@H](CCCNC(=N)N)C(=O)N[C@@H](Cc2c[nH]c3ccccc23)C(=O)N[C@@H](C)C(=O)N[C@@H](C(C)C)C(=O)N[C@@H](CCCCN)C(=O)N[C@@H](Cc2ccc(O)cc2)C(=O)N[C@@H](CCC(N)=O)C(=O)N[C@@H](Cc2c[nH]c3ccccc23)C(=O)N[C@@H](Cc2ccccc2)C(=O)N[C@@H](Cc2c[nH]c3ccccc23)C(=O)N[C@@H](CC(=O)O)C(=O)N1)C(=O)NCC(=O)O [GUR-1.6] (H-QCVKKDELCIPYYLDCCEPLECRWAVKYQWFWDCIG-OH; disulfide 2-17, 9-22, 16-34; N-terminus assumed)
[3]
  improvement in affinity for RNF43 over the previous generation: 10 fold

## CC[C@H](C)[C@H](NC(=O)[C@@H]1CSSC[C@H](NC(=O)[C@@H](NC(=O)[C@H](Cc2c[nH]cn2)NC(=O)[C@H](CO)NC(=O)[C@H](Cc2ccc(O)cc2)NC(=O)[C@H](CC(=O)O)NC(=O)[C@H](Cc2c[nH]cn2)NC(=O)[C@@H]2CSSC[C@H](NC(=O)[C@H](CCC(N)=O)NC(=O)[C@H](CCC(=O)O)NC(=O)CCCC[C@@H]3SC[C@@H]4NC(=O)N[C@@H]43)C(=O)N[C@@H]([C@@H](C)O)C(=O)N[C@@H](CO)C(=O)N[C@@H]([C@@H](C)O)C(=O)N[C@@H](CCC(N)=O)C(=O)N[C@@H](CC(=O)O)C(=O)N[C@@H](CC(C)C)C(=O)N2)C(C)C)C(=O)N[C@H]2CSSC[C@H](NC(=O)[C@H](CC(=O)O)NC(=O)[C@H](CC(C)C)NC(=O)[C@@H]3CCCN3C(=O)[C@H](Cc3c[nH]c4ccccc34)NC2=O)C(=O)N[C@@H](CCCNC(=N)N)C(=O)N[C@@H](Cc2c[nH]c3ccccc23)C(=O)N[C@@H](C)C(=O)N[C@@H](C(C)C)C(=O)N[C@@H](CCCCN)C(=O)N[C@@H](Cc2ccc(O)cc2)C(=O)N[C@@H](CCC(N)=O)C(=O)N[C@@H](Cc2c[nH]c3ccccc23)C(=O)N[C@@H](Cc2ccccc2)C(=O)N[C@@H](Cc2c[nH]c3ccccc23)C(=O)N[C@@H](CC(=O)O)C(=O)N1)C(=O)NCC(=O)O [bio-GUR-1.6.12.2] (Biotin-EQCTSTQDLCHDYSHVCCWPLDCRWAVKYQWFWDCIG-OH; disulfide 3-10, 17-35, 18-23)
[4]
  binding to ZNRF3, peptide immobilized: without binding to ZNRF3
